Assay results from patent US7666994B2, “Cloning and expression of gonadotropin-releasing hormone (GnRH) receptors” (University of New Hampshire, priority 2004, dated 2010).
Ends that are not written are not given here.

Legend:
[1] = tested on: lamprey GnRH receptor; experiment: Inositol phosphate (IP) assay in COS7 cells transiently transfected with the lamprey GnRH receptor; assay type: cell-based, sea lamprey, Petromyzon marinus; conditions: for IP response on stimulation of transiently transfected COS7 cells: in words; for LogEC50, IP accumulation: mean±SEM, n=3, COS7 cells transiently transfected with lamprey GnRH receptor, 10^-6M to 10-11 M, 1 hour at 37° C.; for IP accumulation in cells transfected with blank pcDNA3.1 vector: negative control cells without receptor, data not shown
Experimental: (§1) The coding region of the lamprey GnRH-R was inserted into the pcDNA3.1 HisTOPO mammalian expression vector (Carlsbad, Calif.) (INVITROGEN, Carlsbad, Calif.). COS7 cells were cultured in 10% fetal bovine serum (FBS) in Dulbeccos Modified Eagles Medium (DMEM) (INVITROGEN), and were maintained at 37° C. in 5% CO 2. The day before transfection, 5×10^5 cells were seeded in 60 mm culture plates. Transfection was performed using 5 μg of vector and 15 μL of Lipofectamine (INVITROGEN) in 2.4 mL total volume in Opti-MEM-I (Invitrogen) and an incubation time of 5 hours at 37° C. in 5% CO 2, after which, 2.5 mL of 20% FBS in DMEM was added and cultures were grown overnight.
(§2) Twenty-four hours after transfection (day 2), cells were trypsinized and 96-well plates were seeded with 5×10^4 cells/well, and cultures were grown overnight. Day 3, cells were stimulated with either control (ID buffer −1.0 mM 3-isobutyl-1-methylxanthine in DMEM) or varying concentrations (10^-10M to 10^-4M) of either lamprey GnRH-I or lamprey GnRH-III (in ID buffer). cAMP assays were performed using the BIOTRAK Enzymeimmunoassay system (AMERSHAM), per the manufacturers instructions. Treatments were performed in triplicate in three independent experiments, while cells transfected with blank vector were used as negative controls. Analyses were performed using GRAPHPAD (Prism, San Diego, Calif.). Inositol Phosphate Assay The inositol phosphate (IP) stimulation and extraction protocol used was adapted from previous studies. Briefly, 24 hours after transfection, cells were trypsinized, and seeded in 12-well plates at approximately 1.5×10^5 cells/well. At hour 72 cells were washed in PBS and incubated in 1 mL of 2% dialyzed fetal bovine serum and 2 μCi/mL myo […] inositol (AMERSHAM) in medium 199 (INVITROGEN). At hour 96 cells were washed 2 times with IP buffer (1×HBSS, 20 mM HEPES, 20 mM LiCL), and were pre-incubated in IP buffer for 15 minutes at 37° C., followed by stimulation with concentrations of lamprey GnRH-I or lamprey GnRH III, in IP buffer, ranging from 10^-6M to 10-11 M, for 1 hour at 37° C. with gentle shaking. The reactions were stopped with the addition of 0.2 mL of pre-chilled 20% perchloric acid, and the plates were placed on ice for 30 minutes. The wells were scraped and the extracts were transferred to sterile 1.5 mL tubes and neutralized with 5M KOH, followed by a 1 hour incubation at 4° C. Tubes were centrifuged at 5,000 rpm at 4° C. for 15 minutes, and 1.2 mL of supernatant was transferred to a new sterile 1.5 mL tube. IPs (IP, IP2 and IP3) were isolated by ion exchange chromatography using AGlX8-200 resin (Bio-Rad) in formate form. IPs were eluted with 1 M ammonium formate/0.1 M formic acid, samples were counted by liquid scintillation and data were analyzed using Prism (GRAPHPAD). Treatments were performed in triplicate in three independent experiments, and cells transfected with blank vector and non-transfected cells were used as negative controls.

[2] = tested on: lamprey GnRH receptor; experiment: cAMP assay in COS7 cells transiently transfected with the lamprey GnRH receptor; assay type: cell-based, sea lamprey, Petromyzon marinus; conditions: for cAMP response on stimulation of transiently transfected COS7 cells: in words; for LogEC50, cAMP accumulation: mean±SEM, n=3, COS7 cells transiently transfected with lamprey GnRH receptor, 10^-10M to 10^-4M; for cAMP accumulation in cells transfected with blank pcDNA3.1 vector: negative control cells without receptor, data not shown
Experimental: as §1, §2

[3] = tested on: incubated hemipituitaries of male rats; conditions: cited from earlier work
[4] = tested on: lamprey GnRH receptor transcript; experiment: Transcriptional regulation of the GnRH receptor transcript by lamprey GnRH-III (RT-PCR, densitometry normalized to β-actin); assay type: in vivo, adult male lamprey
Experimental: Forty adult male lamprey's were injected intraperitoneally, twenty (20) with lamprey GnRH-III (200 μL of 0.45 μg/μL lamprey GnRH-III in 0.6% saline) and twenty (20) with control (200 μL of 0.6% saline). Ten (10) fish from each treatment group were sacrificed 24 hours after injection, and brains, pituitaries, kidneys, and testes were dissected and frozen in liquid nitrogen. Forty-eight hours after the first injection, the remaining animals were injected a second time with the same treatment they originally received. Twenty-four hours after the second injection, all remaining animals were sacrificed and tissues dissected and snap frozen. Total RNA was isolated from all tissues using Tri-Reagent (Molecular Research Center, Inc.), treated with RQ1 DNase (PROMEGA), and used as template for RT-PCR with the AccessQuick RT-PCR system (PROMEGA) using the same conditions as above, except 50 ng of template was used per reaction. Reactions were electrophoresed and visualized in 2% agarose gels. Parallel reactions were performed using primers to β-actin as a positive control. Receptor bands were normalized to β-actin and densitometry was performed using a Molecular Imager FX (BioRad, Hercules, Calif.) to determine effects of lamprey […] injection.

[5] = relative to lamprey GnRH-I, one statement for both signaling systems
[6] = after both one and two injections, densitometry normalized to β-actin, N=10

Chain of lamprey GnRH receptor (as listed by the source): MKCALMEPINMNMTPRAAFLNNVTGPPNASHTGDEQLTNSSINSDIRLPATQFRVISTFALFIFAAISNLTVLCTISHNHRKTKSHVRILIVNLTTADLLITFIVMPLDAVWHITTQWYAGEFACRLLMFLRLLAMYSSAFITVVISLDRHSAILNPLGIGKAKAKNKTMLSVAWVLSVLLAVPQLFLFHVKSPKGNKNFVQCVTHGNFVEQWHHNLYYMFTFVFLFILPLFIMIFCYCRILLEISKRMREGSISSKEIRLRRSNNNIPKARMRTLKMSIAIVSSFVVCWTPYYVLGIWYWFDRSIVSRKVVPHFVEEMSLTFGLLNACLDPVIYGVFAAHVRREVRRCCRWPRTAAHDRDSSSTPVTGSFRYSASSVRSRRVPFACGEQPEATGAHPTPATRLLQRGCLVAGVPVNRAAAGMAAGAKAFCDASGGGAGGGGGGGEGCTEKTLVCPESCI

## lamprey GnRH-I: one of two hypothalamic GnRH isoforms (decapeptide) identified in the brain of the lamprey (QHYSLEWKPG; ends and bridges not checked)
[1]
  IP response on stimulation of transiently transfected COS7 cells: dose dependant responses
  LogEC50, IP accumulation: −8.10±0.150
  IP accumulation in cells transfected with blank pcDNA3.1 vector: no response
[2]
  cAMP response on stimulation of transiently transfected COS7 cells: dose dependant responses
  LogEC50, cAMP accumulation: −6.57±0.150
  cAMP accumulation in cells transfected with blank pcDNA3.1 vector: no response
[3]
  FSH-releasing action: little activity
  LH-releasing action: little activity

## lamprey GnRH-III: hypothalamic lamprey GnRH isoform (decapeptide), Tyr instead of Trp in the third position
[1]
  IP response on stimulation of transiently transfected COS7 cells: dose dependant responses
  LogEC50, IP accumulation: −9.37±0.243
  IP accumulation in cells transfected with blank pcDNA3.1 vector: no response
[1]; [5]
  logEC50 fold lower than that of lamprey GnRH-I, IP system: 40-50 fold
[2]
  cAMP response on stimulation of transiently transfected COS7 cells: dose dependant responses
  LogEC50, cAMP accumulation: −8.29±0.090
  cAMP accumulation in cells transfected with blank pcDNA3.1 vector: no response
[2]; [5]
  logEC50 fold lower than that of lamprey GnRH-I, cAMP system: 40-50 fold
[4]; [6]
  receptor transcript regulation in pituitary compared to control: up-regulated
  receptor transcript regulation in testes compared to control: down-regulated
[4]; after one injection, intraperitoneal, 24 hours after injection
  receptor transcript bands in pituitary versus control: twice as bright as control
[4]; after one injection, intraperitoneal, 24 hours after injection, control testes high levels
  GnRH receptor transcript level in testes versus control: barely detectable levels
[4]; after one or two injections
  receptor transcript expression in brain: not induced
[4]; two injections 48 hours apart, 24 hours after second injection
  effects on receptor transcript in pituitary and testes after two injections, relative to one injection: considerably lesser degree
[3]
  FSH-releasing action: potent, dose-related
